Measurements reported in patent US20220280542A1, “PHOSPHORAMIDATES FOR THE TREATMENT OF HEPATITIS B VIRUS” (priority 2016, published 2022).

Experiments:
Assay type in all cases: cell-based
[1] = Cytotoxicity (CC50) Huh-7; settings: human, Huh-7 cells
[2] = Cytotoxicity (CC50) HepG2; settings: human, HepG2 cells
[3] = Cytotoxicity by XTT staining in the HBV efficacy assay; settings: human, HepG2.2.15 cells
Procedure: HepG2.2.15 cells (100 μL) in RPMI1640 medium with 10% fetal bovine serum was added to all wells of a 96-well plate at a density of 1×10^4 cells per well and the plate was incubated at 37° C. in an environment of 5% CO2 for 24 hours. Following incubation, six ten-fold serial dilutions of test compound prepared in RPMI1640 medium with 10% fetal bovine serum were added to individual wells of the plate in triplicate. Six wells in the plate received medium alone as a virus only control. The plate was incubated for 6 days at 37° C. in an environment of 5% CO2. The culture medium was changed on day 3 with medium containing the indicated concentration of each compound. One hundred microliters of supernatant was collected from each well for analysis of viral DNA by qPCR and cytotoxicity was evaluated by XTT staining of the cell culture monolayer on the sixth day.
The 50% cytotoxic concentration for the test materials are derived by measuring the reduction of the tetrazolium dye XTT in the treated tissue culture plates. XTT is metabolized by the mitochondrial enzyme NADPH oxidase to a soluble formazan product in metabolically active cells. XTT solution was prepared daily as a stock of 1 mg/mL in PBS. Phenazine methosulfate (PMS) stock solution was prepared at 0.15 mg/mL in PBS and stored in the dark at −20° C. XTT/PMS solution was prepared immediately before use by adding 40 μL of PMS per 1 mL of XTT solution. Fifty microliters of XTT/PMS was added to each well of the plate and the plate incubated for 2-4 hours at 37° C. The 2-4 hour incubation has been empirically determined to be within linear response range for XTT dye reduction with the indicated numbers of cells for each assay. Adhesive plate sealers were used in place of the lids, the sealed plate was inverted several times to mix the soluble formazan product and the plate was read at 450 nm (650 nm reference wavelength) with a Molecular Devices SpectraMax Plus 384 spectrophotometer. Data were collected by Softmax 4.6 software and imported into an Excel spreadsheet for analysis.

[4] = Cytotoxicity (CC50) BxPC3; settings: human, BxPC3 cells
Cytotoxicity (CC50) CEM = settings: human, CEM cells
Cytotoxicity (CC50) A549 = settings: human, A549 cells
Cytotoxicity (CC50) Vero = settings: African green monkey, Vero cells
Cytotoxicity (CC50) H9c = settings: rat, H9c cells
Cytotoxicity (CC50) A204 = settings: human, A204 cells
[5] = Cytotoxicity (CC50) IEC-6; settings: rat, IEC-6 cells

Structure (SMILES)	CC50 [1] [µM]	CC50 [2] [µM]	CC50 at 6 days [3] [µM]	CC50 [4] [µM]	CC50 (Cytotoxicity (CC50) CEM) [µM]	CC50 (Cytotoxicity (CC50) A549) [µM]	CC50 (Cytotoxicity (CC50) Vero) [µM]	CC50 (Cytotoxicity (CC50) H9c) [µM]	CC50 (Cytotoxicity (CC50) A204) [µM]	CC50 [5] [µM]
Nc1ccn([C@@H]2CS[C@H](CO)O2)c(=O)n1 [3TC (Lamivudine), Lamivudine, reference compound]	> 400	> 400	> 10	> 400	–	–	–	–	–	–
Cc1cn([C@H]2O[C@@H](CO)[C@H](O)[C@H]2F)c(=O)[nH]c1=O [EIDD-02020, Clevudine, reference compound]	> 400	> 400	> 100	> 400	> 400	> 400	> 400	> 400	> 400	> 400
Cc1cn([C@H]2O[C@@H](CO[P@@](=O)(N[C@@H](C)C(=O)OC(C)C)Oc3ccccc3)[C@H](O)[C@H]2F)c(=O)[nH]c1=O [EIDD-02173]	> 400	> 400	> 100	> 400	140	> 400	> 400	344	330	307
Cc1cn([C@H]2O[C@@H](CO[P@](=O)(N[C@@H](C)C(=O)OC(C)C)Oc3ccccc3)[C@H](O)[C@H]2F)c(=O)[nH]c1=O [EIDD-02174]	290	> 400	> 100	> 400	> 400	> 400	> 400	311	374	338
Cc1cn([C@H]2O[C@@H](CO[P@@](=O)(N[C@@H](C)C(=O)OC(C)C)Oc3ccccc3)[C@H](O[P@@](=O)(N[C@@H](C)C(=O)OC(C)C)Oc3ccccc3)[C@H]2F)c(=O)[nH]c1=O [EIDD-02308]	–	–	> 100	–	–	–	–	–	–	–
Cc1cn([C@H]2O[C@@H](CO[P@](=O)(N[C@@H](C)C(=O)OC(C)C)Oc3ccccc3)[C@H](O[P@](=O)(N[C@@H](C)C(=O)OC(C)C)Oc3ccccc3)[C@H]2F)c(=O)[nH]c1=O [EIDD-02309]	–	–	85.1	–	–	–	–	–	–	–
Cc1cn([C@H]2O[C@@H](CO)C(O)C2F)c(=S)[nH]c1=O (stereo partly drawn) [EIDD-02333-1]	–	–	> 100	–	–	–	–	–	–	–
Cc1cn([C@H]2O[C@@H](CO[P@](=O)(N[C@@H](C)C(=O)OC(C)C)Oc3ccccc3)C(O)C2F)c(=S)[nH]c1=O (stereo partly drawn) [EIDD-02334-1]	–	–	> 100	–	–	–	–	–	–	–
Cc1cn([C@H]2O[C@@H](CO[P@@](=O)(N[C@@H](C)C(=O)OC(C)C)Oc3ccccc3)C(O)C2F)c(=S)[nH]c1=O (stereo partly drawn) [EIDD-02335-1]	–	–	> 100	–	–	–	–	–	–	–
